Data reported in ChEMBL document CHEMBL1143037, “Discovery of +(2-{4-[2-(5,6,7,8-tetrahydro-1,8-naphthyridin-2-yl)ethoxy]phenyl}-cyclopropyl)acetic acid as potent and selective alphavbeta3 inhibitor: design, synthesis, and optimization” (Bioorg Med Chem, 2007).

What was measured:
Integrin alpha-V/beta-3 [1] = target: T1, Integrin alpha-V/beta-3 (Homo sapiens, UniProt P05106+P06756); experiment: Inhibition of human integrin alpha-v-beta-3 receptor by solid phase receptor assay; type: protein-complex assay
Integrin alpha-V/beta-5 = Integrin alpha-V/beta-5 (Homo sapiens, UniProt P06756+P18084); experiment: Inhibition of integrin alpha-v-beta-5 receptor expressed in HEK293 cells; type: cell-based
Integrin alpha-V/beta-3 [2] = target: T1, Integrin alpha-V/beta-3; experiment: Inhibition of human integrin alpha-v-beta-3 receptor expressed in HEK293 cells; type: cell-based
Integrin alpha-V/beta-6 = Integrin alpha-V/beta-6 (Homo sapiens, UniProt P06756+P18564); experiment: Inhibition of integrin alpha-beta-6 receptor expressed in HT29 cells; type: cell-based, HT-29
[3] = Half life in Swiss-Webster mouse at 2 mg/kg; type: ADME, organism-based; parameters: dose 2 mg/kg; conditions: in vivo
Rattus norvegicus [4] = species on record: Rattus norvegicus; experiment: (§1) Half life in Sprague-Dawley rat; type: ADME, organism-based; conditions: in vivo
Rattus norvegicus [5] = species on record: Rattus norvegicus; experiment: (§2) Volume of distribution in Sprague-Dawley rat; type: ADME, organism-based; conditions: in vivo
[6] = AUC in Swiss-Webster mouse at 20 mg/kg, iv; type: ADME, organism-based; parameters: dose 20 mg/kg, route intravenous; conditions: plasma
[7] = (§3) Cmax in Sprague-Dawley rat; type: ADME, organism-based; conditions: Sprague-Dawley, in vivo
[8] = Bioavailability in Swiss-Webster mouse at 2 mg/kg; type: ADME, organism-based; conditions: in vivo
[9] = AUC in Swiss-Webster mouse at 20 mg/kg, po; type: ADME, organism-based; parameters: dose 20 mg/kg, route oral; conditions: plasma
Integrin alpha-V/beta-1 = Integrin alpha-V/beta-1 (Homo sapiens, UniProt P05556+P06756); experiment: Inhibition of integrin alphavbeta1 receptor expressed in HEK293 cells; type: cell-based
Rattus norvegicus [10] = species on record: Rattus norvegicus; experiment: (§4) Bioavailability in Sprague-Dawley rat; type: ADME, organism-based; conditions: in vivo
[11] = as §1; type: ADME, organism-based; conditions: Sprague-Dawley, in vivo
[12] = as §2; type: ADME, organism-based; conditions: Sprague-Dawley, in vivo, read-out: Vdss
[13] = Clearance in Sprague-Dawley rat; type: ADME, organism-based; conditions: in vivo
[14] = as §4; type: ADME, organism-based; conditions: Sprague-Dawley, in vivo
Rattus norvegicus [15] = species on record: Rattus norvegicus; experiment: as §3; type: ADME, organism-based; conditions: in vivo
[16] = Bioavailability in Swiss-Webster mouse at 20 mg/kg; type: ADME, organism-based; conditions: in vivo
[17] = Half life in Swiss-Webster mouse at 20 mg/kg; type: ADME, organism-based; parameters: dose 20 mg/kg; conditions: in vivo

T1 sequence (P05106 27-788 limits assumed): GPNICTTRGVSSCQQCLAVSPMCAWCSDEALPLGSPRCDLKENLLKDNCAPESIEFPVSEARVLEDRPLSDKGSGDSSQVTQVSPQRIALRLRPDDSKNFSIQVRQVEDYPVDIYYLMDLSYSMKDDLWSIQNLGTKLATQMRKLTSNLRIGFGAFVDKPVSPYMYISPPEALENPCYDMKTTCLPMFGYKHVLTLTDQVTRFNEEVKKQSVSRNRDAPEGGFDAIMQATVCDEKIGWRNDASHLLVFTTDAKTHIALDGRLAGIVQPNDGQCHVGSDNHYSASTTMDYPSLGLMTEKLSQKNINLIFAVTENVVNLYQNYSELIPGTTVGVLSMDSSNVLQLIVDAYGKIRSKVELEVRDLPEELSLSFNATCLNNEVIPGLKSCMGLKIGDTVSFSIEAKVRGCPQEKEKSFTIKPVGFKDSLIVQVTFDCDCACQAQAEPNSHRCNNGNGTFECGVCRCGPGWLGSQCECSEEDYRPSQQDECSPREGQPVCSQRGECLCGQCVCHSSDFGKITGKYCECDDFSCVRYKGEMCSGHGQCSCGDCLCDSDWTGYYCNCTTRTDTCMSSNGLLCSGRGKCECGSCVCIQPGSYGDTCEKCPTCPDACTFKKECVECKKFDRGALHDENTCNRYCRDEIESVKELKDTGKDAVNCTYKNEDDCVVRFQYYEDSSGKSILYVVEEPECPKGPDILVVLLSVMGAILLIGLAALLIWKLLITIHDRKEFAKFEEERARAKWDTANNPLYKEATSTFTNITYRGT
T1 sequence (P06756 31-889 limits assumed): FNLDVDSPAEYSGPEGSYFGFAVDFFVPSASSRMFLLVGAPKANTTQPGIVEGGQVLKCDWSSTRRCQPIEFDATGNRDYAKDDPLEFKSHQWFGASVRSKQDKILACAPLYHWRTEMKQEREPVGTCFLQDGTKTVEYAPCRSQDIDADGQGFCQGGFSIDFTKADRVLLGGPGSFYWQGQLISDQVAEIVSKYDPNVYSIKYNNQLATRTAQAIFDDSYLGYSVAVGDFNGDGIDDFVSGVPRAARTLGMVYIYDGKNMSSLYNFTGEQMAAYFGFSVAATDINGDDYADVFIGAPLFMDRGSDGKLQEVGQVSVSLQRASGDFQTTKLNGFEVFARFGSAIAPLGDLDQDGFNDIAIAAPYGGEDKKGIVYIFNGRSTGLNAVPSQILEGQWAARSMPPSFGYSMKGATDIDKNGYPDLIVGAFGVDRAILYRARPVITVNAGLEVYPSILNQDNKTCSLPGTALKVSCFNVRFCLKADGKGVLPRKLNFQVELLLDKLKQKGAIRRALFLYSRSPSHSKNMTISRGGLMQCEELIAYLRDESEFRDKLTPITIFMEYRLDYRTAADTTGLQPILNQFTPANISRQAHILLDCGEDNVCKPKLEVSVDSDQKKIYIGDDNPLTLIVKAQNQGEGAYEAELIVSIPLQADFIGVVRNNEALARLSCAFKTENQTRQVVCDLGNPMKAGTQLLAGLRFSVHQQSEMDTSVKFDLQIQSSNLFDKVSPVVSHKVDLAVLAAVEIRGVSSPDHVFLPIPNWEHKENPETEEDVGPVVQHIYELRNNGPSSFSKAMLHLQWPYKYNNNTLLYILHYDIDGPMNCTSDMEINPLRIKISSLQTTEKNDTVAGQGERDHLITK
T1 sequence (P06756 891-1048 limits assumed): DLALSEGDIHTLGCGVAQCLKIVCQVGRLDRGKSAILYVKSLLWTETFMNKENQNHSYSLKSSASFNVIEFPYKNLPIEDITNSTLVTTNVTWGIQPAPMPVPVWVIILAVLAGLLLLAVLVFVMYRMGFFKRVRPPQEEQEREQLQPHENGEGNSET
Integrin alpha-V/beta-6, sequence (P06756 31-889 limits assumed): as the sequence (P06756 31-889 limits assumed) above
Integrin alpha-V/beta-6, sequence (P06756 891-1048 limits assumed): as the sequence (P06756 891-1048 limits assumed) above
Integrin alpha-V/beta-6, sequence (P18564 22-788 limits assumed): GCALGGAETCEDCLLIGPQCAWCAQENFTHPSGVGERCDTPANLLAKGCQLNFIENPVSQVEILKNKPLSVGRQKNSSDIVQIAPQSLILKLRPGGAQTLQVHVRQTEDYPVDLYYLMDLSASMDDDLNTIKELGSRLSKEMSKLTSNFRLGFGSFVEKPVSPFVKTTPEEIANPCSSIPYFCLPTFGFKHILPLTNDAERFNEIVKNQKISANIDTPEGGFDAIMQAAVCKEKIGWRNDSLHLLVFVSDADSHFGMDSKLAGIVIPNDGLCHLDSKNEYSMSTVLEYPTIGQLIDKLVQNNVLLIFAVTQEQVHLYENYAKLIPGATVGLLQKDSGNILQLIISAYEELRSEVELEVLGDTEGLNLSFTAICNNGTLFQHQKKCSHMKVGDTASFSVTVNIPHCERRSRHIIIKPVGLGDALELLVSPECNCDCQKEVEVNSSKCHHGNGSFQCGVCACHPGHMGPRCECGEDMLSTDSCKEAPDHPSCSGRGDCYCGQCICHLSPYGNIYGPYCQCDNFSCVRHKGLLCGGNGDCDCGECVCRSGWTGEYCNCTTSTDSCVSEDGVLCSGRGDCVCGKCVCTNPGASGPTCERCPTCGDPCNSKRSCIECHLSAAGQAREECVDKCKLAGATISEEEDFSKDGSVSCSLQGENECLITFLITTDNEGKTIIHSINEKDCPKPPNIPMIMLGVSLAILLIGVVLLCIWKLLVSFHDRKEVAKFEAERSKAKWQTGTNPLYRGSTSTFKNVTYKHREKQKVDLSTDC
Integrin alpha-V/beta-5, sequence (P06756 31-889 limits assumed): as the sequence (P06756 31-889 limits assumed) above
Integrin alpha-V/beta-5, sequence (P06756 891-1048 limits assumed): as the sequence (P06756 891-1048 limits assumed) above
Integrin alpha-V/beta-5, sequence (P18084 24-799 limits assumed): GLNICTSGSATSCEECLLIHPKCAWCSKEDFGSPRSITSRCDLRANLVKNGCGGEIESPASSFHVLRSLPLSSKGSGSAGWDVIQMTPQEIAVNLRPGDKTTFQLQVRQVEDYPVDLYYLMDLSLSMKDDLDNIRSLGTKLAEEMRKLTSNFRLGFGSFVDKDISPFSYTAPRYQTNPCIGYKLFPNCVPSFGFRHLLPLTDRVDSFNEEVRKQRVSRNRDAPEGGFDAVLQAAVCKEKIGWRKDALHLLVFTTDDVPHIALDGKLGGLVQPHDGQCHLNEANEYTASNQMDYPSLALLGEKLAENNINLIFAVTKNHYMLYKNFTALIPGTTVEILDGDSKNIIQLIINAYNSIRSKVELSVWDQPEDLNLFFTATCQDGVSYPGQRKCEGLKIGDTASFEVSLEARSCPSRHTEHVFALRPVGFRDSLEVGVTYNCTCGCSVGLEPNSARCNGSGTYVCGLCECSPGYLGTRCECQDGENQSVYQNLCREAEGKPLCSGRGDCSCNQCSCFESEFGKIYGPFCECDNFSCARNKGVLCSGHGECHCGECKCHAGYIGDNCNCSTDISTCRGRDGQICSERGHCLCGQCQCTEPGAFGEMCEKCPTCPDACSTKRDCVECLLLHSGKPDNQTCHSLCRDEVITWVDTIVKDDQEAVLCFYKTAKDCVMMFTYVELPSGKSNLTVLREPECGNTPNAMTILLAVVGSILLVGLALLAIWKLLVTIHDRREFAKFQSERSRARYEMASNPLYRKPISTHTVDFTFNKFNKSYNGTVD
Integrin alpha-V/beta-1, sequence (P05556 21-798 limits assumed): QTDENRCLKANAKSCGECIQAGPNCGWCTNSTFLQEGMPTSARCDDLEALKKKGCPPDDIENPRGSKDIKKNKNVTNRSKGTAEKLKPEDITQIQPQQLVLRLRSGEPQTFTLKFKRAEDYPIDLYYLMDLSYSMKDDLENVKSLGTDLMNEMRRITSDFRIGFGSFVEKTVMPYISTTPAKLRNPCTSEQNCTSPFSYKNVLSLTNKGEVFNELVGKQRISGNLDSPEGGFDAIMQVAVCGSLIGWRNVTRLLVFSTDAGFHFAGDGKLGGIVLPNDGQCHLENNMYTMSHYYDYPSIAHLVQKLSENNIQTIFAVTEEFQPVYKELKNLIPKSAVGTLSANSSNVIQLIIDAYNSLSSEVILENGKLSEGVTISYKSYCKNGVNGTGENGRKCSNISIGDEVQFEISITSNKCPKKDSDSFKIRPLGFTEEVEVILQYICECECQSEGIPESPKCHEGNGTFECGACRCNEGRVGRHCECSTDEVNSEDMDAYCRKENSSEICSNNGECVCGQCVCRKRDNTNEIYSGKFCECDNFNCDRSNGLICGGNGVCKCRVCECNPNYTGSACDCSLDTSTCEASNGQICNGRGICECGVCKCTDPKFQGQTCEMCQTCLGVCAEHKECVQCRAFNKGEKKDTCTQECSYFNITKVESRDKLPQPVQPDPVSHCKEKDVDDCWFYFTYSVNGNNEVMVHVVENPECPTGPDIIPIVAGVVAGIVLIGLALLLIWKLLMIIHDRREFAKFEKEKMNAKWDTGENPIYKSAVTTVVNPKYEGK
Integrin alpha-V/beta-1, sequence (P06756 31-889 limits assumed): as the sequence (P06756 31-889 limits assumed) above
Integrin alpha-V/beta-1, sequence (P06756 891-1048 limits assumed): as the sequence (P06756 891-1048 limits assumed) above

Row | SMILES | IC50 (Integrin alpha-V/beta-3 [1]) | IC50 (Integrin alpha-V/beta-5) | IC50 (Integrin alpha-V/beta-3 [2]) | IC50 (Integrin alpha-V/beta-6) | IC50 (Integrin alpha-V/beta-1) | also measured
1 | O=C(O)CCC1CC1c1ccc(OCCc2ccc3c(n2)NCCC3)nc1 (stereo unspecified) | 472 nM | – | 156 nM | – | – | –
2 | O=C(O)CCC1CC1c1cccc(OCCc2ccc3c(n2)NCCC3)c1 (stereo unspecified) | 954 nM | – | 525 nM | – | – | –
3 | O=C(O)CC1(c2ccccc2)CC1c1ccc(OCCc2ccc3c(n2)NCCC3)cc1 (stereo unspecified) | 2700 nM | – | – | – | – | –
4 | O=C(O)CC1CC1c1ccc(OCCc2ccc3c(n2)NCCC3)nc1 (stereo unspecified) | 1900 nM | – | – | 10000 nM | – | –
5 | O=C(O)CC1CC1c1ccc(OCCCNc2ccccn2)cc1 (stereo unspecified) | 19 nM | – | 42 nM | – | 234 nM | half-life [3]: 2.3 h; AUC [6]: 14200 ng·h/mL; bioavailability [8]: 79%; AUC [9]: 18300 ng·h/mL
6 | CC1(C)C(CC(=O)O)C1c1ccc(OCCc2ccc3c(n2)NCCC3)cc1 (single isomer, unassigned; (-)) | 42 nM | – | – | 10000 nM | – | –
7 | CC1(c2ccc(OCCc3ccc4c(n3)NCCC4)cc2)CC1CC(=O)O (stereo unspecified) | 36 nM | – | – | – | – | –
8 | O=C(O)CC1CC1c1ccc(OCCc2ccc3c(n2)NCCC3)cc1 (single isomer, unassigned; (-)) | 16 nM | 33 nM | 16 nM | 10000 nM | 297 nM | –
9 | O=C(O)CCC1CC1c1ccc(OCc2ccc3c(n2)NCCC3)cc1 (stereo unspecified) | 1000 nM | – | – | – | – | –
10 | O=C(O)CC1CC1c1cccc(OCCc2ccc3c(n2)NCCC3)c1 (stereo unspecified) | 776 nM | – | 205 nM | 9600 nM | – | –
11 | CC(CC(=O)O)Cc1ccc(OCCCNc2ccccn2)cc1 (stereo unspecified) | 21 nM | 33 nM | 51 nM | 4360 nM | 102 nM | bioavailability [16]: 92%; half-life [17]: 4.1 h; AUC [6]: 106000 ng·h/mL; AUC [9]: 195000 ng·h/mL

The next compounds have a lower IC50 (Integrin alpha-V/beta-3 [1]) than those just listed; values first:

Row | IC50 (Integrin alpha-V/beta-3 [1]) | IC50 (Integrin alpha-V/beta-5) | IC50 (Integrin alpha-V/beta-3 [2]) | IC50 (Integrin alpha-V/beta-6) | IC50 (Integrin alpha-V/beta-1) | SMILES | also measured
12 | 1 nM | 3 nM | 0.9 nM | 9800 nM | – | O=C(O)CC1CC1c1ccc(OCCc2ccc3c(n2)NCCC3)c(O)c1 (stereo unspecified) | –
13 | 5 nM | 4.4 nM | 3 nM | – | 64 nM | O=C(O)CC1CC1c1ccc(OCCc2ccc3c(n2)NCCC3)cc1 (stereo in doubt; 7) | half-life [3]: 1.6 h; t1/2 (Rattus norvegicus [4]): 1.6 h; Vdss (Rattus norvegicus [5]): 0.221 L/kg; AUC [6]: 378000 ng·h/mL; Cmax [7]: 24500 ng/mL; bioavailability [8]: 62%; AUC [9]: 398000 ng·h/mL; F (Rattus norvegicus [10]): 62%
14 | 1.6 nM | – | 1.5 nM | 4500 nM | – | O=C(O)CC1C(c2ccc(OCCc3ccc4c(n3)NCCC4)cc2)C1(Cl)Cl (stereo unspecified) | half-life [11]: 4 h; Vd [12]: 0.493 L/kg; clearance [13]: 2.2 mL/min/kg; Cmax [7]: 17400 ng/mL; bioavailability [14]: 100%
15 | 1.3 nM | – | 1.5 nM | 10000 nM | – | CC1(C)C(CC(=O)O)C1c1ccc(OCCc2ccc3c(n2)NCCC3)cc1 (stereo in doubt; 83) | t1/2 (Rattus norvegicus [4]): 3.5 h; Vdss (Rattus norvegicus [5]): 0.419 L/kg; Cmax (Rattus norvegicus [15]): 23500 ng/mL
16 | 0.5 nM | – | 2 nM | 25000 nM | 28 nM | O=C(O)CC(Cc1ccc(OCCCNc2ccccn2)cc1)c1cccnc1 (stereo unspecified) | half-life [3]: 1.7 h; AUC [6]: 200 ng·h/mL; bioavailability [8]: 100%; AUC [9]: 300 ng·h/mL
17 | 0.6 nM | 1.4 nM | 0.6 nM | 2570 nM | 6 nM | O=C(O)CC1CC1c1ccc(OCCc2ccc3c(n2)NCCC3)cc1 (stereo in doubt; (+)7) | t1/2 (Rattus norvegicus [4]): 4 h; Vdss (Rattus norvegicus [5]): 0.915 L/kg; Cmax (Rattus norvegicus [15]): 14800 ng/mL; F (Rattus norvegicus [10]): 100%
18 | 0.4 nM | 4 nM | 0.4 nM | 1790 nM | – | CC1(C)C(CC(=O)O)C1c1ccc(OCCc2ccc3c(n2)NCCC3)cc1 (stereo in doubt; (+)83) | half-life [11]: 5.1 h; Vd [12]: 0.276 L/kg; clearance [13]: 0.9 mL/min/kg; Cmax [7]: 33000 ng/mL; bioavailability [14]: 100%
19 | 7.4 nM | – | 7 nM | 20000 nM | – | CNc1cccc(CCOc2ccc(C3CC3CC(=O)O)cc2)n1 (stereo unspecified) | –
20 | 2 nM | – | 10 nM | 10000 nM | – | O=C(O)CC1CC1c1ccc(OCCc2ccc3c(n2)NCCC3)c(F)c1F (stereo unspecified) | –
21 | 3.3 nM | 20 nM | 1.7 nM | 4330 nM | – | O=C(O)CC1C(c2ccc(OCCc3ccc4c(n3)NCCC4)cc2)C1(Br)Br (stereo unspecified) | –
22 | 8 nM | 20 nM | 29 nM | 19800 nM | 96 nM | O=C(O)CC(Cc1ccc(OCCCNc2ccccn2)cc1)c1ccccc1 (stereo unspecified) | half-life [3]: 4.4 h; AUC [6]: 2300 ng·h/mL; bioavailability [8]: 100%; AUC [9]: 2800 ng·h/mL
23 | 0.5 nM | 3 nM | 11 nM | 3530 nM | 11 nM | O=C(O)CC1CC1c1ccc(OCCc2ccc3c(n2)NCCC3)c(F)c1 (stereo unspecified) | half-life [11]: 3.7 h; Vd [12]: 0.864 L/kg; clearance [13]: 5.8 mL/min/kg; Cmax [7]: 15000 ng/mL; bioavailability [14]: 100%
24 | 12 nM | – | – | – | – | CC1(C)[C@H](c2ccc(OCCc3ccc4c(n3)NCCC4)cc2)[C@@H]1CC(=O)O (relative stereo) | –
